The record followed here is ChEMBL document CHEMBL1667837, “Structure and property based design, synthesis and biological evaluation of γ-lactam based HDAC inhibitors” (Bioorg Med Chem Lett, 2011).

pIC50: −log10 of the molar value.

The test system of one data set is MDA-MB-231. Put plainly: Cytotoxicity against human MDA-MB-231 cells. In kind it is functional.
Data set [1] in a line: Inhibition of HDAC by fluorescence assay.
A further data set deals with PC-3. Put plainly: Cytotoxicity against human PC3 cells. The data set is classed as functional.
For the next data set, the system named is ACHN. The data set is described as follows: Cytotoxicity against human ACHN cells. In kind it is functional.
The nature of data set [2]: Apparent permeability across human Caco2 cells. The data set is classed as ADME, cell-based. The note with it: Caco-2.
A short description of data set [3]: Metabolic stability in ICR mouse liver microsomes assessed as compound remaining at 1 uM after 60 mins in presence of NADPH. In kind it is ADME, Microsome. The following applies: read-out: Stability.
In another data set the test system is LOX IMVI. Put plainly: Cytotoxicity against human LOXIMVI cells. In kind it is functional.
Data set [4] in a line: Metabolic stability in ICR mouse liver microsomes assessed as compound remaining at 1 uM after 60 mins in absence of NADPH. The data set is classed as ADME, Microsome. The following applies: read-out: Stability. (Liver microsomes are a subcellular fraction often used to study metabolism.)
For the next data set, the system named is NCI-H23. The data set is described as follows: Cytotoxicity against human NCI-H23 cells. In kind it is functional.
A further data set relates to HCT-15. The data set is described as follows: Cytotoxicity against human HCT15 cells. In kind it is functional.
The nature of data set [5]: Metabolic stability in ICR mouse liver microsomes assessed as compound remaining at 1 uM after 60 mins in presence of buffer. In kind it is ADME, Microsome. The note with it: read-out: Stability.
The next data set deals with NUGC-3. Put plainly: Cytotoxicity against human NUGC3 cells. The data set is classed as functional.
The nature of data set [6]: Inhibition of HDAC assessed as increase of histone H4 acetylation.
The nature of data set [7]: Inhibition of HDAC assessed as increase of histone H3 acetylation.

By GI50 is commonly meant the concentration giving 50% growth inhibition. A high value points to lower sensitivity of the cells. One may read the pIC50 as −log10 of the IC50, conventionally taken in molar units. A low value points to a high IC50. `O=C(CCC1=CCCN(CCCc2ccc3ccccc3c2)C1=O)NO`: the GI50 came out at 4.7 µM in the data set with MDA-MB-231, 3.77 µM with PC-3 and 5.78 µM with ACHN. Moreover, in data set [1], the pIC50 is 6.85.

For orientation: Papp means a coefficient for how fast a substance crosses the barrier. `O=C(CCC1=CCCN(CCc2ccc3ccccc3c2)C1=O)NO`: the GI50 with MDA-MB-231 was found to be 0.45 µM; in the data set with LOX IMVI it was 0.56 µM; with NCI-H23, 0.54 µM; in the data set on PC-3, 0.56 µM; in the data set with HCT-15, 0.79 µM; in the data set on NUGC-3, 0.42 µM. Further, the GI50 in the data set on ACHN was 0.61 µM. For the same molecule, in [2], the Papp worked out at 19.1 ×10⁻⁶ cm/s. Also, the remaining at 1 h, 1 µM was 10.3% in data set [3], 31% in data set [4] and 99.1% in data set [5]. The molecule also gave a pIC50 in data set [1] of 7.40.

Consider `O=C(CCC1=CCCN(CCCc2ccccc2)C1=O)NO`, for which the Papp in [2] was 17.5 ×10⁻⁶ cm/s. Further, the pIC50 in data set [1] was 6.57. Moreover, growth with PC-3 was halved (GI50) at 6.98 µM.

As to `CC(/C=C/C(=O)NO)=C\[C@@H](C)C(=O)c1ccc(N(C)C)cc1`, the inhibition result in data set [6] and in [7] was “Dose-dependent effect” in each case.

`O=C(CCC1=CCN(CCc2ccccc2)C1=O)NO`: the GI50 with MDA-MB-231 was 0.99 µM; in the data set with LOX IMVI, 30 µM; with NCI-H23, 4.29 µM; with PC-3, 4.43 µM; with HCT-15, 5.37 µM; with ACHN, 1.08 µM. In [1], this molecule had a pIC50 of 6.92.

On to `O=C(CCC1=CCN(CCCc2ccccc2)C1=O)NO`, for which the 50% growth inhibitory concentration (GI50) was determined as 3.81 µM with MDA-MB-231; 4.52 µM in the data set with LOX IMVI; 3.46 µM in the data set on NCI-H23; 3.91 µM with PC-3; 6.23 µM with HCT-15; 2.6 µM in the data set with NUGC-3. This molecule returned a GI50 in the data set with ACHN of 4.24 µM. The Papp in data set [2] was found to be 9.5 ×10⁻⁶ cm/s. The remaining at 1 h, 1 µM in data set [3] stood at 66.6%; in data set [4], 66.3%. Moreover, the negative-log IC50 (pIC50) in data set [1] is 7.30.

As to `O=C(CCC1=CCN(CCc2cccc3ccccc23)C1=O)NO`, the GI50 is 4.76 µM in the data set on MDA-MB-231; 3.71 µM with LOX IMVI; 5.13 µM with NCI-H23; 5.76 µM in the data set with PC-3; 6.78 µM in the data set with HCT-15; 5.23 µM with NUGC-3. The molecule further gave a GI50 with ACHN of 6.41 µM. Also, the figures for the remaining at 1 h, 1 µM in data set [3] and in data set [4] were 3.9% and 15.1%, respectively. In addition, in data set [1], the pIC50 is 6.44.

For `O=C(CCC1=CCN(Cc2ccccc2)C1=O)NO`, the GI50 with MDA-MB-231 worked out at 4.73 µM; in the data set on LOX IMVI it was 30 µM; in the data set on NCI-H23, 30 µM; with PC-3 it was 30 µM; in the data set with HCT-15, 30 µM; with ACHN, 30 µM. Further, the pIC50 in data set [1] was 6.10.
